System: Formosean subterranean termites (Coptotermes formosanus)
Assay: Subterranean termite activity on treated wooden frame structures (sheds), field test
Format: in vivo
From the text: Twelve wooden frame structures (4 ft by 3 ft by 4 ft high, four to receive treatment with a bifenthrin solution, four to receive a commercial borate standard treatment and four to be used as untreated controls) were built on one inch thick concrete pads in an area of high subterranean termite pressure, Formosean subterranean termites (Coptotermes formosanus). The structures were constructed using pressure treated sill plates, untreated southern yellow pine studs and untreated plywood walls. A two inch diameter polyethylene pipe was installed in a hole in the center of each concrete pad to simulate a plumbing drain installation, leaving a small gap between the pad and the pipe. A piece of wood was inserted in the gap to encourage local termite pressure. […] Termite activity surrounding each structure was monitored by installing commercially available in-ground termite monitors (FIRSTLINE® Defender kits available from FMC Corporation) about one foot from each outside face, a total of four monitors per structure. […] Termite activity was measured in each structure by visually inspecting the inside and outside walls and the area around the polyethylene pipe for termite damage and for construction of shelter tubes at for up to 18 months after treatment. […]

**Q.** Which “Termite damage or damage to the wood piece inserted in the simulated plumbing drain hole” value (up to 18 months after treatment) does the source give for Cc1c(COC(=O)[C@@H]2[C@H](/C=C(\Cl)C(F)(F)F)C2(C)C)cccc1-c1ccccc1 (racemic) [Bifenthrin, 2-methylbiphenyl-3-ylmethyl (Z)-(1RS)-cis-3-(2-chloro-3,3,3-trifluoroprop-1-enyl)-2,2-dimethyl cyclopropanecarboxylate] here?
**A.** Its value is “None of the bifenthrin treated structures had any indication of termite damage or damage to the wood piece”.

**Q.** What about the “Damage to structures due to termite activity” value (visual inspection up to 18 months after treatment) of the same compound?
**A.** Its value is “very little or no damage due to termite activity”.

Source: US8359784B2, “Method for controlling subterranean termite activity by forming a barrier” (FMC Corporation, priority 2009, dated 2013)
